The values below come from ChEMBL document CHEMBL1157780, “Synthesis, chiral high performance liquid chromatographic resolution and enantiospecific activity of a potent new geranylgeranyl transferase inhibitor, 2-hydroxy-3-imidazo[1,2-a]pyridin-3-yl-2-phosphonopropionic acid” (J Med Chem, 2010).

Molecules are shown by their SMILES. The source made the active and inactive calls. No cut-off for these calls is given here. Bounds are passed on as bounds.

As a reminder, the IC50 is the concentration that inhibits the measured activity by half. Broadly, the Ki is a dissociation constant, usually derived from enzyme kinetics or from competition with a known ligand.

Experiment [1] concerns J774. Put plainly: Inhibition of RGGT-mediated Rab11 prenylation in mouse J774 cells after 24 hrs by Western blot analysis. The format is cell-based. For orientation: Immunoblotting shows a protein as a band on a membrane.
The test system of experiment [2] is J774. The experiment is described as follows: Inhibition of RGGT-mediated Rap1A prenylation in mouse J774 cells after 24 hrs by Western blot analysis. The experiment is classed as cell-based.
Experiment [3] deals with T1, Geranylgeranyl transferase type-2 subunit alpha (Homo sapiens) (UniProt Q92696).
T1 sequence (whole entry): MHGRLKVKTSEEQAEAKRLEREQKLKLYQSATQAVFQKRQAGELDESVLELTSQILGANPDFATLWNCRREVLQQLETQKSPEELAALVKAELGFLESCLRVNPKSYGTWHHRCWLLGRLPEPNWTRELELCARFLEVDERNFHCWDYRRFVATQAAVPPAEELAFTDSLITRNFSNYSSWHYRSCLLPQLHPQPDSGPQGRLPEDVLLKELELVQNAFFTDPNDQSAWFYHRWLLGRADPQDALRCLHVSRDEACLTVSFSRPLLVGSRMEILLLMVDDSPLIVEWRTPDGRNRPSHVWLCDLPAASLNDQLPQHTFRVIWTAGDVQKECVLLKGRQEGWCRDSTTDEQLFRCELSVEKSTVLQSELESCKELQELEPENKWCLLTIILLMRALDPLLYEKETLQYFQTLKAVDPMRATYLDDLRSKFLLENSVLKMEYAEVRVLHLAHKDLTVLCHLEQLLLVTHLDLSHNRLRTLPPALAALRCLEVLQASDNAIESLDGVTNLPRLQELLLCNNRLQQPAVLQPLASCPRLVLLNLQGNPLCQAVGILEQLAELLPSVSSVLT
The experiment is described as follows: Inhibition of rabbit osteoclast rab11 prenylation after 24 hrs by Western blot analysis. The note with it: Oryctolagus cuniculus; target entry is the homologue from another species.

For experiment [4], the target named is T2, Farnesyl pyrophosphate synthase (Homo sapiens) (UniProt P14324).
T2 sequence (whole entry): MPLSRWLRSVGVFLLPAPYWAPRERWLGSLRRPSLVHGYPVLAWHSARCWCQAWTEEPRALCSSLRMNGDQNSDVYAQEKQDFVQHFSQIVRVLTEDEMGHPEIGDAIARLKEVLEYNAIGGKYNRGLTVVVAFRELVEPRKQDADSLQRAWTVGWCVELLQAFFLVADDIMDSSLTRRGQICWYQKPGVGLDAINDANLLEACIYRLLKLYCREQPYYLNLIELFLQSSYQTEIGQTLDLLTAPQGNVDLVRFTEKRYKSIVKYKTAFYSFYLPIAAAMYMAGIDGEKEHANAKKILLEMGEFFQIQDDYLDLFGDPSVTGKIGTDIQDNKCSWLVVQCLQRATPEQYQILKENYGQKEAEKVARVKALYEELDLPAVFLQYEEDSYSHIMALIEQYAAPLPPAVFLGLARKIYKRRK
The experiment is described as follows: Inhibition of human FPPS at 10 uM after 10 mins using [14C]IPP as substrate.

Experiment [5] has as its system J774. The experiment is described as follows: Cytotoxicity against mouse J774 cells assessed as cell viability after 48 hrs by alamar blue assay. The experiment is classed as functional, cell-based. For orientation: The colour change of resazurin is a common sign of viable cells or microbes.
Experiment [6] is described as follows: Inhibition of recombinant RGGT assessed as incorporation of [3H]GGPP into His-tagged canine rab1a after 30 mins.
The nature of experiment [7]: Inhibition of recombinant RGGT assessed as incorporation of [3H]GGPP into His-tagged canine rab1a after 20 mins.
The nature of experiment [8]: Inhibition of GGTase1 assessed as incorporation of [3H]GGPP into His-tagged canine rab1a after 30 mins.
Experiment [9] can be described thus: Inhibition of recombinant RGGT by uncompetitive inhibition based Lineweaver-Burke plot using Rab1a as substrate.
The target in experiment [10] is T3, Geranylgeranyl pyrophosphate synthase (Homo sapiens) (UniProt O95749).
T3 sequence (whole entry): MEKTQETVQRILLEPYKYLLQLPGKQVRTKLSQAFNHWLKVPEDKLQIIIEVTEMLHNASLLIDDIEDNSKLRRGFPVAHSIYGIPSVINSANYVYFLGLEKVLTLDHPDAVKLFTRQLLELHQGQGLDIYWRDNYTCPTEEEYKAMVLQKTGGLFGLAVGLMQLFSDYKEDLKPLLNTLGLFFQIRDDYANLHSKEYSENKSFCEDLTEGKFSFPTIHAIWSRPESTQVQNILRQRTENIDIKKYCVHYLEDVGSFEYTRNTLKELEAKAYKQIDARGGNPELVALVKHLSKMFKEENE
The experiment is described as follows: Inhibition of GGPPS at 1mM after 10 mins using [14C]IPP as substrate by liquid scintillation counting.

Experiment [11] deals with Protein farnesyltransferase/geranylgeranyltransferase type-1 subunit alpha (Homo sapiens) (UniProt P49354). Put plainly: Inhibition of GGTase1 assessed as incorporation of [3H]GGPP into His-tagged canine rab1a at 1 mM after 30 mins.
In experiment [12] the target is T4, Farnesyl pyrophosphate synthase (Homo sapiens, UniProt P14324).
T4 sequence (P14324 whole entry): T2 sequence (whole entry)
The experiment is described as follows: Inhibition of human FPPS after 10 mins using [14C]IPP as substrate by liquid scintillation counting.

The test system of a further experiment is Osteoclast. Put plainly: Antiresorptive activity in rabbit osteoclasts assessed as number of actin rings after 48 hrs using TRITC-phelloidin stain relative to control. The format is functional, cell-based. The note with it: Oryctolagus cuniculus.
For another experiment, the species on record is Rattus norvegicus. The experiment is described as follows: Antiresorptive activity in Schenk growing rat model assessed as inhibition of bone resorption. The experiment is classed as functional.

In the case of `O=P(O)(O)C(O)(Cc1cccnc1)P(=O)(O)O`, the LED in the experiment on J774 [1] and in the experiment with J774 [2] was 12 µM throughout.

Regarding `O=C(O)C(O)(Cc1cccnc1)P(=O)(O)O` (single isomer, unassigned; enantiomer 1) [listing 1 of 2 here], in the experiment on J774 [1], the LED stood at 63 µM.

In the case of `O=C(O)C(O)(Cc1cnc2ccccn12)P(=O)(O)O` (racemic), the LED with J774 [1] was 3 µM; in the experiment on J774 [2], over 100 µM. The same compound gave an Activity in experiment [3] of 12.5 µM. Also, the outcome in [4] was inactive.

For the compound `O=C(O)C(O)(Cc1cnc2ccccn12)P(=O)(O)O` (single isomer, unassigned; (+)) [(2-HYDROXY-3-IMIDAZO[1,2-A]PYRIDIN-3-YL-2-PHOSPHONOPROPIONIC ACID (ENANTIONMERS)], the IC50 was 31 µM with J774 [5] (j774), 1.1 µM in [6], 1.3 µM in [7] and over 800 µM in experiment [8]. Further, the Ki in experiment [9] stood at 0.211 µM.

For the compound `O=C(O)C(O)(Cc1cnc2ccccn12)P(=O)(O)O` (single isomer, unassigned; (+)), the LED in the experiment on J774 [1] is 3 µM; in the experiment on J774 [2], 100 µM. The outcome in [10] and in experiment [11] was inactive.

As to `O=C(O)C(O)(Cc1cccnc1)P(=O)(O)O` (single isomer, unassigned; enantiomer 2) [listing 1 of 2 here], in the experiment on J774 [1], the LED came to 250 µM.

Consider `O=C(O)C(O)(Cc1cccnc1)P(=O)(O)O` (single isomer, unassigned; enantiomer 2) [listing 2 of 2 here], for which the IC50 in [6] worked out at 150 µM.

Compound `O=C(O)C(O)(Cc1cccnc1)P(=O)(O)O` (racemic) [listing 1 of 2 here] returned an LED in the experiment on J774 [1] of 100 µM. In experiment [3], the Activity came to 200 µM. Besides, the outcome in [4] was inactive.

For the compound `O=C(O)C(O)(Cc1cccnc1)P(=O)(O)O` (racemic) [listing 2 of 2 here], the IC50 was over 1000 µM in [12]; 2800 µM in the experiment with J774 [5] (Mus musculus, J774, 48 h); 51.7 µM in experiment [6]; 32 µM in experiment [7]; over 2000 µM in [8]; 970 µM in the experiment on Osteoclast. In addition, the Ki in experiment [9] was 33.6 µM. Further, the LED in the experiment listed under Rattus norvegicus was 12 mg/kg.

For the compound `O=C(O)C(O)(Cc1cnc2ccccn12)P(=O)(O)O` (racemic) [(2-HYDROXY-3-IMIDAZO[1,2-A]PYRIDIN-3-YL-2-PHOSPHONOPROPIONIC ACID (ENANTIONMERS)], the IC50 in [12] is over 10 µM; in the experiment with J774 [5] (j774) it was 47 µM; in [6], 12.5 µM; in the experiment on Osteoclast it was 330 µM. Moreover, in the experiment filed under Rattus norvegicus, the LED stood at 2.8 mg/kg.

Turning to `O=C(O)C(O)(Cc1cnc2ccccn12)P(=O)(O)O` (single isomer, unassigned; enantiomer 2), the LED in the experiment with J774 [1] is 50 µM; in the experiment with J774 [2], 4000 µM. Further, the result in [10] and in experiment [11] was inactive.

With `O=P(O)(O)C(O)(Cc1cnc2ccccn12)P(=O)(O)O` [MINODRONIC ACID], the IC50 with J774 [5] (Mus musculus, J774, 48 h) was 3 µM; in [6], over 1000 µM. Moreover, the LED in the experiment with J774 [1] and with J774 [2] was 3 µM throughout.

In the case of `O=C(O)C(O)(Cc1cccnc1)P(=O)(O)O` (single isomer, unassigned; enantiomer 1) [listing 2 of 2 here], in experiment [6], the IC50 worked out at 39 µM.

As to `O=C(O)C(O)(Cc1cnc2ccccn12)P(=O)(O)O` (single isomer, unassigned; enantiomer 2) [(2-HYDROXY-3-IMIDAZO[1,2-A]PYRIDIN-3-YL-2-PHOSPHONOPROPIONIC ACID (ENANTIONMERS)], the IC50 was over 800 µM in the experiment on J774 [5] (j774) and 67.7 µM in experiment [6].
